Assay: molar heat capacity at constant pressure; mn = molality of the nth substance listed, in mol/kg
Conditions: 100 kPa, Liquid, Small sample (50 mg) DSC

[Ca+2].[Cl-].[Cl-] [calcium chloride] + O
molar heat capacity at constant pressure [J/K/mol]
Conditions | m1 = 0.49 | m1 = 1.17 | m1 = 1.83 | m1 = 2.51 | m1 = 3.14 | m1 = 3.8 | m1 = 4.41 | m1 = 5.1 | m1 = 5.76 | m1 = 6.39
168.15 K | – | – | – | – | – | 56.81 | 58.42 | – | – | –
178.15 K | – | – | – | – | – | 57.77 | 59.16 | – | – | –
188.15 K | – | – | – | – | – | 58.49 | 59.66 | – | – | –
198.15 K | – | – | – | – | – | 59.45 | 60.4 | – | – | –
208.15 K | – | – | – | – | – | 60.41 | 61.15 | – | – | –
218.15 K | – | – | – | – | – | 61.37 | 61.9 | – | – | –
228.15 K | – | – | – | – | 62.08 | 62.09 | 62.64 | – | – | –
238.15 K | – | – | – | 63.47 | 63 | 63.05 | 63.39 | 64.08 | – | –
248.15 K | – | 68.18 | 65.68 | 64.35 | 63.92 | 63.77 | 64.13 | 64.6 | – | –
258.15 K | 72.68 | 68.77 | 66.51 | 65.23 | 64.61 | 64.48 | 64.63 | 65.37 | 66.09 | –
268.15 K | 72.49 | 69.37 | 67.14 | 65.89 | 65.3 | 65.2 | 65.38 | 65.89 | 66.62 | –
278.15 K | 72.68 | 69.77 | 67.77 | 66.55 | 65.76 | 65.68 | 65.87 | 66.66 | 67.42 | 67.93
288.15 K | 72.68 | 69.97 | 68.19 | 66.99 | 66.22 | 66.16 | 66.37 | 67.18 | 67.96 | 68.2
298.15 K | 72.87 | 70.37 | 68.61 | 67.43 | 66.91 | 66.64 | 67.12 | 67.7 | 68.49 | 68.76

[Cl-].[Cl-].[Mg+2] [magnesium chloride] + O
molar heat capacity at constant pressure [J/K/mol]
Conditions | m1 = 0.58 | m1 = 1.12 | m1 = 1.67 | m1 = 2.19 | m1 = 2.74 | m1 = 3.36 | m1 = 3.88 | m1 = 4.46 | m1 = 5.04 | m1 = 5.63
168.15 K | – | – | – | – | – | 49.33 | 49.35 | – | – | –
178.15 K | – | – | – | – | – | 51.34 | 51.42 | 51.55 | – | –
188.15 K | – | – | – | – | – | 53.36 | 53.27 | 53.21 | – | –
198.15 K | – | – | – | – | – | 55.38 | 55.11 | 54.88 | – | –
208.15 K | – | – | – | – | – | 57.17 | 56.72 | 56.54 | – | –
218.15 K | – | – | – | – | – | 58.74 | 58.34 | 57.97 | 57.68 | 57.28
228.15 K | – | – | – | 62 | 61.04 | 60.09 | 59.49 | 59.15 | 58.66 | 58.54
238.15 K | – | – | 65.07 | 63.46 | 62.34 | 61.43 | 60.87 | 60.34 | 59.88 | 59.54
248.15 K | – | 68.59 | 65.88 | 64.3 | 63.42 | 62.33 | 61.8 | 61.29 | 60.61 | 60.55
258.15 K | 72.24 | 68.98 | 66.69 | 65.35 | 64.29 | 63.23 | 62.49 | 62 | 61.59 | 61.3
268.15 K | 72.24 | 69.57 | 67.5 | 66.19 | 65.16 | 64.12 | 63.41 | 62.72 | 62.08 | 62.06
278.15 K | 72.24 | 69.96 | 67.9 | 66.61 | 65.59 | 64.57 | 63.87 | 63.19 | 62.81 | 62.56
288.15 K | 72.43 | 70.16 | 68.31 | 67.23 | 66.02 | 65.02 | 64.33 | 63.67 | 63.3 | 63.06
298.15 K | 72.43 | 70.55 | 68.71 | 67.44 | 66.45 | 65.47 | 64.79 | 64.14 | 63.55 | 63.56

[Cl-].[K+] [potassium chloride] + O
molar heat capacity at constant pressure [J/K/mol]
Conditions | m1 = 0.53 | m1 = 0.97 | m1 = 1.41 | m1 = 1.86 | m1 = 2.34 | m1 = 2.79 | m1 = 3.25 | m1 = 3.72 | m1 = 4.15 | m1 = 4.62
238.15 K | – | – | – | – | – | – | – | – | 65.84 | –
248.15 K | – | – | – | 70.06 | – | 68.17 | 67.44 | 66.86 | 66.5 | –
258.15 K | 74.76 | 72.91 | 71.45 | 70.26 | 69.43 | 68.59 | 68.08 | 67.29 | 66.94 | –
268.15 K | 74.2 | 72.72 | 71.45 | 70.46 | 69.64 | 68.79 | 68.29 | 67.72 | 67.16 | 66.63
278.15 K | 73.83 | 72.72 | 71.64 | 70.66 | 69.84 | 69 | 68.5 | 67.93 | 67.38 | 66.85
288.15 K | 73.83 | 72.72 | 71.64 | 70.66 | 69.84 | 69.21 | 68.71 | 67.93 | 67.6 | 67.08
298.15 K | 73.83 | 72.72 | 71.64 | 70.86 | 70.04 | 69.42 | 68.71 | 68.15 | 67.6 | 67.08
